Source: PMC2993481, “Rat cytochromes P450 oxidize 3-aminobenzanthrone, a human metabolite of the carcinogenic environmental pollutant 3-nitrobenzanthrone” (Interdisciplinary Toxicology, 2010)
pIC50: −log10 of the molar value. One block for each molecule: values may come before it.

Key:
[1] = set-up: method as in Seidel et al., [2002]; details: smoking and nonsmoking salt mining workers exposed to diesel emissions; ref Seidel et al., [2002]; cited from earlier work
[2] = test system: rat hepatic CYP enzymes in microsomes; experiment: Oxidation of 3-ABA by rat hepatic microsomes, metabolites separated by HPLC; assay type: in vitro ADME; details: NADPH, 37 °C
Protocol: (§1) The study was conducted in accordance with the Regulations for the Care and Use of Laboratory Animals (311/1997, Ministry of Agriculture, Czech Republic), which complies with Declaration of Helsinki. Microsomes from livers of ten male untreated Wistar rats and those of rats pretreated with β-NF (Sigma, UK) and PB were prepared by the procedure described previously (Stiborová et al., [2002]). Rat liver microsomes contained 0.6 nmol CYP/mg protein. Hepatic microsomes of rats treated with β-NF and PB contained 1.3 and 1.5 nmol CYP/mg proteins, respectively.
Incubation mixtures, in a final volume of 500 µl, consisted of 100 mM potassium phosphate buffer (pH 7.4), 10 mM NADPH, 0.5 mg of microsomal protein and 5–50 µM 3-ABA (dissolved in dimethyl sulfoxide, DMSO). The reaction was initiated by adding 3-ABA. Incubations with rat microsomes were carried out at 37 °C for 5–180 minutes. Control incubations were carried out either (1) without the enzymatic system (microsomes) or (2) with microsomes and 3-ABA, but without NADPH. Then, 5 µl of 1 mM phenacetine in methanol was added as an internal standard and 3-ABA and its metabolites were extracted twice with ethyl acetate (2 × 1.5 ml). The extracts were evaporated to dryness; residues were dissolved in 30 µl of methanol and subjected to reverse-phase (RP)-HPLC to evaluate the amounts of residual 3-ABA and its metabolites. […]

Salmonella = test system: Salmonella; set-up: method as in Enya et al., [1997]; Seidel et al., [2002]; Arlt, [2005]; details: ref Enya et al., [1997]; Seidel et al., [2002]; Arlt, [2005]; cited from earlier work
rats = test system: rats; set-up: method as in Seidel et al., [2002]; Arlt, [2005]; Nagy et al., [2005]; details: intratracheal instillation, ref Seidel et al., [2002], Arlt, [2005], Nagy et al.; cited from earlier work
[3] = test system: Control rat hepatic microsomes (CYPs); experiment: Inhibition of 3-ABA oxidation by CYPs in hepatic microsomes of untreated (control) rats; assay type: biochemical; details: hepatic microsomes from control rats; inhibitor 0.01–0.1 mM, 20 min, 37 °C
Protocol: The study was conducted in accordance with the Regulations for the Care and Use of Laboratory Animals (311/1997, Ministry of Agriculture, Czech Republic), which complies with Declaration of Helsinki.

[4] = test system: Hepatic microsomes from rats pretreated with Phenobarbital (CYP2B); experiment: Inhibition of 3-ABA oxidation by CYPs in hepatic microsomes of phenobarbital-pretreated rats; assay type: biochemical, rat; details: inhibitor 0.01–0.1 mM, 20 min, 37 °C
Protocol: as §1
Incubation mixtures, in a final volume of 500 µl, consisted of 100 mM potassium phosphate buffer (pH 7.4), 10 mM NADPH, 0.5 mg of microsomal protein and 5–50 µM 3-ABA (dissolved in dimethyl sulfoxide, DMSO). The reaction was initiated by adding 3-ABA. Incubations with rat microsomes were carried out at 37 °C for 5–180 minutes. […]
The following chemicals were used to inhibit 3-ABA oxidation in the presence of rat hepatic microsomes: α-naphthoflavone (α-NF), which inhibits CYP1A1 and 1A2, furafylline, which inhibits CYP1A2, diamantane, an inhibitor of CYP2B, sulfophenazole, which inhibits CYP2C and diethyldithiocarbamate, which inhibits CYP2E1 (Rendic and DiCarlo, [1997]). […] After the incubation, 3-ABA and its metabolites were extracted and analyzed by HPLC as described above.

CYP1A1/2 = experiment: Inhibition of 3-ABA oxidation by CYPs in hepatic microsomes of β-naphthoflavone-pretreated rats; assay type: biochemical; details: male, Wistar, rat, liver microsomes from β-naphthoflavone-pretreated rats, pH 7.4, probe 3-ABA (5-50 µM), hepatic microsomes from rats pretreated with β-naphtoflavone (CYP1A1/2), inhibitor 0.01–0.1 mM, 37 °C
Protocol: The HPLC was performed with a reversed phase column (Nucleosil 100-5 C18, Macherey-Nagel, Duren, Germany, 25 cm×4.6 mm, 5 µm) proceeded by a C-18 guard column, using isocratic elution conditions of 70% methanol in distilled water with a flow rate of 0.6 ml/min.
Inhibitors were dissolved in 7.5 µl of methanol or water (in the case of diethyldithiocarbamate), to yield final concentrations of 0.01–0.1 mM in the incubation mixtures. […] After the incubation, 3-ABA and its metabolites were extracted and analyzed by HPLC as described above.

Compound: Nc1ccc2ccc3cccc4ccc1c2c34 [1-aminopyrene]
Concentration detected in urine [1]: 2–200 ng/24 h urine

Metabolites formed by oxidation in rat hepatic microsomes [2]: up to three metabolites
Compound: Nc1ccc2c3c(cccc13)C(=O)c1ccccc1-2 [3-ABA, 3-Aminobenzanthrone]
Concentration detected in urine [1]: 1–143 ng/24 h urine

Compound: O=C1c2ccccc2-c2ccc([N+](=O)[O-])c3cccc1c23 [3-NBA, 3-nitro-7H-benz[de]anthracen-7-one]
Mutagenic potency in the Ames Salmonella assay (Salmonella): extremely high mutagenic potency
Carcinogenicity in rats (rats): carcinogenic in rats, causing lung tumours

pIC50 [3]: 4.01
Compound: CCN(CC)C(=S)S [DDTC, diethyldithiocarbamate]

Compound: C1C2CC3C4CC5CC(C14)C(C2)C3C5 [Diamantane, diamantane]
pIC50 [4]: 6.05

IC50 at 20 min (CYP1A1/2): 16.6 µM
Compound: Cc1nc2c([nH]1)c(=O)n(C)c(=O)n2Cc1ccco1 [Furafylline, furafylline]

IC50 at 20 min (CYP1A1/2): 10.9 µM
Compound: O=c1cc(-c2ccccc2)oc2c1ccc1ccccc12 [α-naphtoflavone, α-naphthoflavone]
